Test results reported in patent US20050043331A1, “Substituted 3-(2,5-disubstituted)pyridyl-4-aryl pyrroles for treating inflammatory diseases” (priority 2002, published 2005).
Like-named read-outs stand apart in the source and are kept apart here.

How the values were obtained:
TNF-α [1] = test: In-vitro whole cell assay for TNF-α inhibition (LPS-stimulated PBMC, ELISA); format: cell-based; settings: TNF-α by ELISA
Experimental: Freshly obtained venous blood was anticoagulated with heparin, diluted with an equal volume of phosphate buffered saline (“PBS”) and placed in a sterile tube or other container. Aliquots (30 mL) of this mixture were transferred to centrifuge tubes, which were underlaid with Ficoll-Hypaque (15 mL). The prepared tubes were centrifuged at 400×g, without braking, for 30 min at room temperature. Approximately ½ to ⅔ of the platelet layer above the mononuclear cell band was removed with a pipette. The majority of the mononuclear cell layer was carefully removed using a pipette and these PBMC's were diluted with PBS and spun at 600×g for 15 min. The resulting PBMC's were washed with another portion of PBS and spun at 400×g for 10 min at room temperature. The recovered pellets were diluted in low endotoxin RPMI/1% FCS culture medium, and gave a cell concentration of 0.5-2.0×10^6 PMBC/ mL. A small volume of the suspension was removed for counting on a hemocytometer and the remaining preparation was centrifuged at 200×g for 15 min at room temperature. The recovered pelleted PMBC's were resuspended in RPMI/1% FCS to a concentration of 1.67×10^6/mL.
To run the assay, the PBMC suspension (180 μL) was transferred to duplicate wells of a 96-well flat-bottom microtiter plate and incubated for 1 h at 37° C. A solution of test compound (10 μL: prepared at 20× the desired final concentration) was added to each well and the plate was incubated for 1 h at 37° C. A solution (10 μL) of LPS in RPMI/1% FCS (200 ng/mL) was added and the wells were incubated overnight at 37° C. The supernate (100 μL) was removed from each well and diluted with RPMI/1% FCS (400 μL). The samples were analyzed for TNF-α using a commercial ELISA kit (Genzyme).

P38 = P38 (Homo sapiens, UniProt Q16539); test: P38 cell, 1 μM LJ; format: cell-based; set-up: unit not given here
Sequence of P38 (Q16539 whole entry): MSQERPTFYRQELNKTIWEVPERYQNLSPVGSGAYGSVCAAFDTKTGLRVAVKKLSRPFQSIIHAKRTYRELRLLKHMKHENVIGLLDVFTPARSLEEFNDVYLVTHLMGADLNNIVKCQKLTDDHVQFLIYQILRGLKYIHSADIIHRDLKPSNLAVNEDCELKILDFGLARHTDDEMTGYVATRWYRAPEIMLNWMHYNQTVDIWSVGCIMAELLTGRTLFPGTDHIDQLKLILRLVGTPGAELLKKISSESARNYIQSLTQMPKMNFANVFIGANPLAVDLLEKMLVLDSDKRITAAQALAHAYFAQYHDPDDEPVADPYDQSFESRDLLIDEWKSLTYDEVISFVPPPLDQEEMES

TNF-α [2] = test: In vivo rodent assay for inhibition of LPS-induced TNF-α production; set-up: species or system Mice (BALB/cJ females); settings: Mus musculus, po, 10 mg/kg oral
Experimental: Mice (BALB/cJ females, Jackson Laboratories) or rats (Lewis males, Charles River) were fasted for 30 min. The animals were dosed orally on a mg/kg basis at a range of times prior to being injected intraperitoneally with LPS at 1 mg/kg and returned to their cages for 1 h. Animals were anesthetized by CO2, exsanguinated by cardiac puncture and whole blood collected (0.1-0.7 mL). The blood was allowed to clot and serum was transferred to a centrifuge tube. This sample was centrifuged, and serum was collected, aliquoted and frozen at −80° C. Samples were tested by commercial ELISA's for TNF-α (Endogen for mouse TNF-α and Biosource for rat TNF-α).

[3] = 0.5 h, 0.5 h, read-out: Mouse 10 mg/kg % inhib 0.5 h
[4] = 2 h, 2 h, read-out: Mouse 10 mg/kg % inhib 2 h

IC50 (TNF-α [1]) [nM] | P38 cell 1 μM LJ (P38) | SMILES | inhibition in vivo at 10 mg/kg (TNF-α [2]; [3]) [%] | inhibition in vivo at 10 mg/kg (TNF-α [2]; [4]) [%]
10000 | 1 | COC(=O)c1c(-c2ccc(F)cc2)c(-c2ccncc2)cn1CCN1CCOCC1 [Cpd 60] |  | 
 | 15 | CC(C)C(C)NC(=O)c1c(-c2ccc(F)cc2)c(-c2ccncc2)c(N2CCNCC2)n1C (stereo not shown) [Cpd 90] |  | 
 | 22 | CC(C)NC(=O)c1c(-c2ccc(F)cc2)c(-c2ccncc2)c(N2CCNCC2)n1C [Cpd 89] |  | 
136 | 42 | CCOC(=O)c1[nH]cc(-c2ccncc2)c1-c1ccc(C)cc1 [Cpd 75] |  | 
10000 |  | COC(=O)c1c(-c2ccncc2)c(-c2ccc(F)cc2)c(NCCN2CCOCC2)n1C [Cpd 148] | 91 | 
315 |  | COC(=O)c1c(-c2ccc(F)cc2)c(-c2ccncc2)c(NC2CCNCC2)n1C [Cpd 131] | 7 | 
208 |  | Fc1ccc(-c2cn3c(c2-c2ccncc2)CNCC3)cc1 [Cpd 30, 7-(4-Fluorophenyl)-1,2,3,4-tetrahydro-8-(4-pyridinyl)-pyrrolo[1,2-a]pyrazine] | 71 | 
18 |  | Cn1cc(-c2ccncc2)c(-c2ccc(F)cc2)c1-c1nnco1 [Cpd 35, 4-[4-(4-Fluorophenyl)-1-methyl-5-(1,3,4-oxadiazol-2-yl)-1H-pyrrol-3-yl]pyridine] | 60 | -1
756 |  | CCOC(=O)c1c(-c2ccc(F)cc2)c(-c2ccncc2)c(CCCN2CCOCC2)n1C [Cpd 19, 3-(4-Fluorophenyl)-1-methyl-5-[3-(4-morpholinyl)propyl]-4-(4-pyridinyl)-1H-pyrrole-2-carboxylic acid ethyl ester] | 34 | 
72 |  | CON(C)C(=O)c1c(-c2ccc(F)cc2)c(-c2ccncc2)c(N2CCN(C(=O)OC(C)(C)C)CC2)n1C [Cpd 145] | 45 | 
70 |  | CCn1cc(-c2ccncc2)c(-c2ccc(F)cc2)c1CO [Cpd 143] | 48 | 
36 | 11 | Cn1c(C(=O)C2CC2)c(-c2ccc(F)cc2)c(-c2ccncc2)c1N1CCN(C(=O)C2CC2)CC1 [Cpd 107] |  | 
180 |  | COC(=O)c1c(-c2ccncc2)c(-c2ccc(F)cc2)c(Br)n1C [Cpd 43, 5-Bromo-4-(4-fluorophenyl)-1-methyl-3-(4-pyridinyl)-1H-pyrrole-2-carboxylic acid methyl ester] | -6 | 
443 |  | COCC#Cc1c(-c2ccc(F)cc2)c(-c2ccncc2)c(C(=O)OC)n1C [Cpd 172] | -5 | 
42 |  | COC(=O)c1c(-c2ccc(F)cc2)c(-c2ccncc2)c(NCc2ccc(OC)cc2)n1C [Cpd 160] | 79 | -46
194 |  | COC(=O)c1c(-c2ccc(F)cc2)c(-c2ccncc2)cn1C(C)=O [Cpd 121] | -32.1 | 
2 |  | COC(=O)c1c(-c2ccc(F)cc2)c(-c2ccncc2)c(-c2cccc(NC(C)=O)c2)n1C [Cpd 144] | 59 | 
5 |  | COC(=O)CN1CCN(c2c(-c3ccncc3)c(-c3ccc(F)cc3)c(C(=O)OC)n2C)CC1 [Cpd 181] |  | 26
3 |  | CN(CCO)Cc1[nH]cc(-c2ccc(F)cc2)c1-c1ccncc1 [Cpd 180] |  | -8
139 |  | COC(=O)c1c(-c2ccc(F)cc2)c(-c2ccncc2)c(N2CCN(C3CCCC3)CC2)n1C [Cpd 125] | 48.6 | 
86 | 4 | CCOC(=O)c1c(-c2ccc(F)cc2)c(-c2ccncc2)c(Br)n1C [Cpd 87] |  | 
819 |  | O=C1CCn2c(Br)c(-c3ccncc3)c(-c3ccc(F)cc3)c21 [Cpd 129] | 31 | 
125 | −2 | CCOC(=O)c1c(-c2ccc(F)cc2)c(-c2ccncc2)cn1C [Cpd 86] |  | 
96 |  | CCOC(=O)c1[nH]cc(-c2ccncc2)c1-c1cccc(C(F)(F)F)c1 [Cpd 57] | -8 | 
23 |  | COC(=O)c1c(-c2ccc(F)cc2)c(-c2ccncc2)cn1C(=O)OC [Cpd 139] | -22 | 

More lines, now with the values behind:

SMILES | IC50 (TNF-α [1]) [nM] | P38 cell 1 μM LJ (P38) | inhibition in vivo at 10 mg/kg (TNF-α [2]; [3]) [%] | inhibition in vivo at 10 mg/kg (TNF-α [2]; [4]) [%]
CN(C)C(=O)c1c(-c2ccc(F)cc2)c(-c2ccncc2)c(Br)n1C [Cpd 97] | 301 | 1 | -41 | 
CCCNC(=O)c1c(-c2ccc(F)cc2)c(-c2ccncc2)c(N2CCNCC2)n1C [Cpd 88] | 10000 | 7 |  | 
COC(=O)c1c(-c2ccc(F)cc2)c(-c2ccncc2)c(N2CCN(C(=O)OC(C)(C)C)CC2)n1C [Cpd 8a] | 4260 | 28 |  | 
CC(=O)c1c(-c2ccc(F)cc2)c(-c2ccncc2)c(N2CCN(C)CC2)n1C [Cpd 178] | 370 |  |  | 40
CCOC(=O)c1c(-c2ccc(Br)cc2)c(-c2ccncc2)cn1C [Cpd 77] | 211 | 62 |  | 
COC(=O)c1c(-c2ccc(F)cc2)c(-c2ccncc2)c(N2CCN(C(C)=O)CC2)n1C [Cpd 116] | 1530 |  | 57 | 
COC(=O)c1c(-c2ccc(F)cc2)c(-c2ccncc2)c(N2CCC(N)C2)n1C (stereo not shown) [Cpd 113] | 237 |  | 25 | 
CN1CCN(c2c(-c3ccncc3)c(-c3ccc(F)cc3)c(C#N)n2C)CC1 [Cpd 183] | 80 |  |  | 47
COC(=O)c1c(-c2ccc(F)cc2)c(-c2ccncc2)c2n1CCC2C (stereo not shown) [Cpd 47, 6-(4-Fluorophenyl)-2,3-dihydro-1-methyl-7-(4-pyridinyl)-1H-pyrrolizine-5-carboxylic acid methyl ester] | 208 |  | 67 | 52
COC(=O)c1c(-c2ccncc2)c(-c2ccc(F)cc2)c(C#CCN2CCOCC2)n1C [Cpd 44, 4-(4-Fluorophenyl)-1-methyl-5-[3-(4-morpholinyl)-1-propynyl]-3-(4-pyridinyl)-1H-pyrrole-2-carboxylic acid methyl ester] | 788 |  |  | 47
COC(=O)c1c(-c2ccc(F)cc2)c(-c2ccncc2)c(Nc2ccc(N3CCOCC3)cc2)n1C [Cpd 159] | 1560 |  | 29 | 
Cn1c(Br)c(-c2ccncc2)c(-c2ccc(F)cc2)c1C#N [Cpd 170] | 625 |  | 22 | 
COC(=O)c1c(-c2ccc(F)cc2)c(-c2ccncc2)c(C2=CCNCC2)n1C [Cpd 7, 3-(4-Fluorophenyl)-1-methyl-4-(4-pyridinyl)-5-(1,2,3,6-tetrahydro-4-pyridinyl)-1H-pyrrole-2-carboxylic acid methyl ester] | 72 |  | 96 | 
COC(=O)c1c(-c2ccc(F)cc2)c(-c2ccncc2)c(NCCN2CCCC2)n1CCN1CCOCC1 [Cpd 156] | 969 |  | 23 | 
Cn1cc(-c2ccncc2)c(-c2ccc(F)cc2)c1C(=O)NCC(=O)c1ccccc1 [Cpd 34, 3-(4-Fluorophenyl)-1-methyl-N-(2-oxo-2-phenylethyl)-4-(4-pyridinyl)-1H-pyrrole-2-carboxamide] | 157 |  | 81 | 37
COC(=O)c1c(-c2ccncc2)c(-c2ccc(F)cc2)cn1C [Cpd 141] | 55 |  | -56 | 
CCOC(=O)N1CCN(c2c(-c3ccncc3)c(-c3ccc(F)cc3)c(C(=O)OC)n2C)CC1 [Cpd 179] | 30 |  |  | 8
CCNC(=O)N1CCN(c2c(-c3ccncc3)c(-c3ccc(F)cc3)c(C(=O)OC)n2C)CC1 [Cpd 13, 5-[4-[(Ethylamino)carbonyl]-1-piperazinyl]-3-(4-fluorophenyl)-1-methyl-4-(4-pyridinyl)-1H-pyrrole-2-carboxylic acid methyl ester] | 2920 |  | -38 | 
COC(=O)C1CCn2c(NCCN3CCOCC3)c(-c3ccncc3)c(-c3ccc(F)cc3)c2C1=O (stereo not shown) [Cpd 23, 1-(4-Fluorophenyl)-5,6,7,8-tetrahydro-3-[[2-(4-morpholinyl)ethyl]amino]-8-oxo-2-(4-pyridinyl)-7-indolizinecarboxylic acid methyl ester] | 77 |  | 71 | 
